# Data: US12581252B2, “Substituted pyrrolo[3,4-b]pyridines as PI3K-α inhibitors” (Relay Therapeutics, Inc., priority 2020, dated 2026)
# Target: H1047R PIK3CA enzyme (Homo sapiens, UniProt P42336, H1047R)
# Test: ADP-Glo Biochemical PIK3CA Kinase Assay
# Chain of H1047R PIK3CA enzyme (P42336 whole entry H1047R): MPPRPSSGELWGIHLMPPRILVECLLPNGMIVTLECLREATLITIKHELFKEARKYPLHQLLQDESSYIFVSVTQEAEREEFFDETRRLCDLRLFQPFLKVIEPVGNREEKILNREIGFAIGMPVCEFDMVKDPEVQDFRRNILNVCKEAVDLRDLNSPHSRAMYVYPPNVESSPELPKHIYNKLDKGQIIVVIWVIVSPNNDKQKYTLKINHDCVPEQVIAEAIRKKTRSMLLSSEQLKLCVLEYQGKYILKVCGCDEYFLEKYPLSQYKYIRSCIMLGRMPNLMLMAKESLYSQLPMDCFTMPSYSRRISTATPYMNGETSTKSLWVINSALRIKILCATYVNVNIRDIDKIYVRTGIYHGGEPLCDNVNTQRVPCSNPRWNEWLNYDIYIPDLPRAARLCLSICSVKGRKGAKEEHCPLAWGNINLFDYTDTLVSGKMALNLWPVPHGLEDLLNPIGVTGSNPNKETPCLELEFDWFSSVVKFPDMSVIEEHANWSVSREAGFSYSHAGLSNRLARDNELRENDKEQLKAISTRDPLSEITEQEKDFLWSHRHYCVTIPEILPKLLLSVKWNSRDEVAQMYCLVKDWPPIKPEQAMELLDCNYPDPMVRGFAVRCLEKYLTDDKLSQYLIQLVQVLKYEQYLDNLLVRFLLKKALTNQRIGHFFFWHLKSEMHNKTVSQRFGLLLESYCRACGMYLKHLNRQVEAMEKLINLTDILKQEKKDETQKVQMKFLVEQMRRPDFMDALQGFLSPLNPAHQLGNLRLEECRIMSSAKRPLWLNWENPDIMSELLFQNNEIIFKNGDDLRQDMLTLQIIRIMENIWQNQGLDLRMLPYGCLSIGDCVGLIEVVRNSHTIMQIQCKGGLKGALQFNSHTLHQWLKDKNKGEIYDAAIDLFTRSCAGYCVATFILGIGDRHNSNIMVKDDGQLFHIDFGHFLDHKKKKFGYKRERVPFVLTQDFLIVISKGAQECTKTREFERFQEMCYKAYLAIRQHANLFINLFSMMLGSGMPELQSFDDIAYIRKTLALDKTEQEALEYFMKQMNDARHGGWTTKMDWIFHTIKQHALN
# Chain of H1047R PIK3CA enzyme (P27986 whole entry partner): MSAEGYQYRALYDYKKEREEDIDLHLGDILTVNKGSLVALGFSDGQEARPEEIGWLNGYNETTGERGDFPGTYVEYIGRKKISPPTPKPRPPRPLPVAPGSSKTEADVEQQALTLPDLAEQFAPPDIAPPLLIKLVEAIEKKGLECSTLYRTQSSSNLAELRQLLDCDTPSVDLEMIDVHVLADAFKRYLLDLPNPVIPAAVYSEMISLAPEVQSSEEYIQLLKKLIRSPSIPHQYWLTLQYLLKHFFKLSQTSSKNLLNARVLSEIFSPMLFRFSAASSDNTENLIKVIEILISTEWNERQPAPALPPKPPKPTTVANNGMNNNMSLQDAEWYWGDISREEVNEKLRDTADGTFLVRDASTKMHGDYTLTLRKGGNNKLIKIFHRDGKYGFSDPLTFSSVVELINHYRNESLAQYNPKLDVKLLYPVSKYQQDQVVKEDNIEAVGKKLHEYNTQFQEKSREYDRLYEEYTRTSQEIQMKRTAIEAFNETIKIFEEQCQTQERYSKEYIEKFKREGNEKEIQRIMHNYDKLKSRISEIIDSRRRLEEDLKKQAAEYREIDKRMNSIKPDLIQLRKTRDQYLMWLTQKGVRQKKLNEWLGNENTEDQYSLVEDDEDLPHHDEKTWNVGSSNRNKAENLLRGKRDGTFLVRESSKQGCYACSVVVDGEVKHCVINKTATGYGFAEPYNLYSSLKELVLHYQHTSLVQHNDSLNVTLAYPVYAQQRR
row,SMILES,IC50 [µM]
1,N#Cc1cc(NC(=O)c2cc(F)cc(C(F)(F)F)c2)c2c(c1)C(=O)NC2c1cc(F)ccc1C(F)F (stereo not drawn) [Compound I-237],≤ 0.1
2,O=C(Nc1cc(Br)cc2c1[C@H](c1cccc(F)c1Cl)NC2=O)c1cc(F)cc(C(F)(F)F)c1 [Compound I-669],≤ 0.1
3,"N#CCCc1cc(NC(=O)N2C[C@@H](O)c3cc(F)ccc32)c2c(c1)C(=O)N[C@@H]2c1cc(F)ccc1Cl (single isomer, unassigned) [Compound I-2348]",1 to 10
4,O=C(Nc1cc(Cn2cccn2)cc2c1C(c1cc(F)ccc1Cl)NC2=O)c1cc(F)cc(C(F)(F)F)c1 (stereo not drawn) [Compound I-1497],≤ 0.1
5,O=C(Nc1cccc2c1C(c1cc(F)ccc1Cl)NC2=O)c1ncc(Br)s1 (stereo not drawn) [Compound I-2112],10 to 100
6,"O=C1N[C@@H](c2cc(F)ccc2Cl)c2c(NC(=O)N3C[C@](O)(C(F)(F)F)c4cc(F)ccc43)cc(N3CCOC3=O)cc21 (single isomer, unassigned) [Compound I-2676]",10 to 100
7,O=C1NC(c2cc(F)ccc2Cl)c2c(NC(=O)c3csc4ccccc34)cc(Br)cc21 (stereo not drawn) [Compound I-626],≤ 0.1
8,O=C1NC(c2cc(F)ccc2Cl)c2c1cccc2-c1nc2c(F)cc(C(F)(F)F)cc2[nH]1 (stereo not drawn) [Compound I-1944],≤ 0.1
9,O=C(Nc1cccc2c1C(c1cc(F)ccc1Cl)NC2=O)c1cc(Cl)cc2c1OCC2 (stereo not drawn) [Compound I-596],1 to 10
10,"O=C1N[C@@H](c2cc(F)ccc2Cl)c2c(NC(=O)N3C[C@@H](O)c4ccccc43)cc(-c3ccc4ncnn4c3)cc21 (single isomer, unassigned) [Compound I-1577]",≤ 0.1
11,"O=C1N[C@H](c2cc(F)ccc2Cl)c2c(NC(=O)[C@@H]3C[C@@H](O)C[C@H](C(F)(F)F)C3)cccc21 (single isomer, unassigned) [Compound I-2176]",10 to 100
12,N#Cc1cc(NC(=O)c2cc(F)cc(C(F)(F)F)c2)c2c(c1)C(=O)NC2c1cc(F)ccc1Cl (stereo not drawn) [Compound I-490],≤ 0.1
13,O=C(Nc1cccc2c1C(c1cc(Br)ccc1Cl)NC2=O)c1cc(F)cc(C(F)(F)F)c1 (stereo not drawn) [Compound I-446],≤ 0.1
14,O=C1NC(c2cc(F)ccc2Cl)c2c(NC(=O)C34CC5CC(F)(CC(F)(C5)C3)C4)cccc21 (stereo not drawn) [Compound I-1180],0.1 to 0.5
15,CC(=O)Nc1cc(NC(=O)c2cc(F)cc(C(F)(F)F)c2)c2c(c1)C(=O)N[C@H]2c1cc(F)ccc1Cl [Compound I-461],≤ 0.1
16,O=C1NC(c2cc(F)ccc2Cl)c2c(NC(=O)c3ncsc3Br)cccc21 (stereo not drawn) [Compound I-2397],1 to 10
17,CC(C)(O)c1cnc2ccc(-c3cc(NC(=O)c4cc(F)cc(C(F)(F)F)c4)c4c(c3)C(=O)NC4c3cc(F)ccc3Cl)cc2c1 (stereo not drawn) [Compound I-1540],≤ 0.1
18,O=C(Nc1cc(CS(=O)(=O)N2CCOCC2)cc2c1C(c1cc(F)ccc1Cl)NC2=O)c1cc(F)cc(C(F)(F)F)c1 (stereo not drawn) [Compound I-1364],≤ 0.1
19,O=C(Nc1cc(C2=CCOC2)cc2c1C(c1cc(F)ccc1Cl)NC2=O)c1cc(F)cc(C(F)(F)F)c1 (stereo not drawn) [Compound I-643],≤ 0.1
20,O=C(Nc1cc(-c2ccc(=O)n(C(F)F)c2)cc2c1C(c1cc(F)ccc1Cl)NC2=O)c1cc(F)cc(C(F)(F)F)c1 (stereo not drawn) [Compound I-1768],≤ 0.1

row,SMILES,IC50 [µM]
1,CSc1cc(-c2ccc3ncnn3c2)cc2c1C(c1cc(F)ccc1Cl)NC2=O (stereo not drawn) [Compound I-1892],10 to 100
2,"O=C1N[C@H](c2cc(F)ccc2Cl)c2c(NC(=O)N3C[C@@H](O)c4c(F)cccc43)cccc21 (single isomer, unassigned) [Compound I-2145]",1 to 10
3,CC1(Cc2cc(NC(=O)N3CC(O)c4cc(F)ccc43)c3c(c2)C(=O)NC3c2cc(F)ccc2Cl)COC1 (stereo not drawn) [Compound I-2490],0.5 to 1
4,COc1cncc(-c2cc(NC(=O)c3cc(F)cc(C(F)(F)F)c3)c3c(c2)C(=O)NC3c2cc(F)ccc2Cl)c1 (stereo not drawn) [Compound I-854],≤ 0.1
5,O=C(Nc1cc(-c2cn3ncnc3cn2)cc2c1C(c1cc(F)ccc1Cl)NC2=O)c1cc(F)cc(C(F)(F)F)c1 (stereo not drawn) [Compound I-1335],≤ 0.1
6,O=C(O)Cc1ccncc1-c1cc(NC(=O)c2cc(F)cc(C(F)(F)F)c2)c2c(c1)C(=O)NC2c1cc(F)ccc1Cl (stereo not drawn) [Compound I-1220],≤ 0.1
7,COC(=O)c1cc(NC(=O)c2cc(F)cc(C(F)(F)F)c2)c2c(c1)C(=O)NC2c1cc(F)ccc1Cl (stereo not drawn) [Compound I-373],≤ 0.1
8,O=C(Nc1cc(CNCc2ccccc2)nc2c1C(c1cc(F)ccc1Cl)NC2=O)c1cc(F)cc(C(F)(F)F)c1 (stereo not drawn) [Compound I-444],0.1 to 0.5
9,O=C(Nc1cc(Oc2ncncc2F)cc2c1C(c1cc(F)ccc1Cl)NC2=O)c1cc(F)cc(C(F)(F)F)c1 (stereo not drawn) [Compound I-1246],≤ 0.1
10,"O=C1CCC[C@H]([C@@H]2NC(=O)c3cccc(NC(=O)c4cc(F)cc(C(F)(F)F)c4)c32)C1 (single isomer, unassigned) [Compound I-2254]",10 to 100
11,"O=C1N[C@@H](c2cc(F)ccc2Cl)c2c(NC(=O)N3C[C@@](O)(C(F)(F)F)c4cc(F)ccc43)cc(-n3nccn3)cc21 (single isomer, unassigned) [Compound I-2571]",1 to 10
12,COc1cccc(C2NC(=O)c3cccc(NC(=O)c4cc(F)cc(C(F)(F)F)c4)c32)c1 (stereo not drawn) [Compound I-687],10 to 100
13,O=C(Nc1cc(-c2ccc3nc(Cl)nn3c2)cc2c1C(c1cc(F)ccc1Cl)NC2=O)c1cc(F)cc(C(F)(F)F)c1 (stereo not drawn) [Compound I-1573],≤ 0.1
14,Cc1ccccc1C1NC(=O)c2cccc(NC(=O)c3noc4c3CCCCC4)c21 (stereo not drawn) [Compound I-292],10 to 100
15,"CN1CCN(C(=O)Nc2cc(Br)cc3c2[C@@H](c2cc(F)ccc2Cl)NC3=O)CC1(C)C (single isomer, unassigned) [Compound I-2241]",10 to 100
16,O=C(Nc1cc(NC(=O)N2CC(F)(F)C2)cc2c1C(c1cc(F)ccc1Cl)NC2=O)c1cc(F)cc(C(F)(F)F)c1 (stereo not drawn) [Compound I-513],≤ 0.1
17,O=C(Nc1cc(Br)cc2c1C(c1cc(F)ccc1Cl)NC2=O)c1cc(C(F)(F)F)cc(F)c1F (stereo not drawn) [Compound I-908],1 to 10
18,O=C1NC(c2cc(F)ccc2Cl)c2c(NC(=O)N3CCc4ccccc4C3)cccc21 (stereo not drawn) [Compound I-2307],10 to 100
19,"O=C1N[C@H](c2cc(F)ccc2Cl)c2c(NC(=O)N3C[C@](O)(C(F)(F)F)c4cc(F)ccc43)cc(Cl)cc21 (single isomer, unassigned) [Compound I-2512]",1 to 10
20,"C[C@H](C#N)n1cc(-c2cc(NC(=O)c3cc(F)cc(C(F)(F)F)c3)c3c(c2)C(=O)N[C@@H]3c2cc(F)ccc2Cl)cn1 (single isomer, unassigned) [Compound I-1915]",1 to 10

row,SMILES,IC50 [µM]
1,"O=C1N[C@H](c2cc(F)ccc2Cl)c2c1cc(-c1ccc3ncnn3c1)cc2S(=O)(=O)Cc1ccccc1 (single isomer, unassigned) [Compound I-1905]",1 to 10
2,"Cc1ccccc1C1NC(=O)c2cc(-c3cnn(C)c3)cc(NC(=O)c3csc4ccccc34)c21 (stereo not drawn) [Compound I-115, N-[6-(1-methyl-1H-pyrazol-4-yl)-3-(2-methylphenyl)-1-oxo-2,3-dihydro-1H-isoindol-4-yl]-1-benzothiophene-3-carboxamide]",≤ 0.1
3,O=C1NC(c2cc(F)ccc2Cl)c2c(NC(=O)C3CCCC(C(F)(F)F)C3)cc(-c3ccc4ncnn4c3)cc21 (mixture of isomers) [Compound I-1816],≤ 0.1
4,O=C1NC(c2cc(F)ccc2Cl)c2c(NC(=O)N3CCc4ccc(F)cc43)cc(Br)cc21 (stereo not drawn) [Compound I-1717],≤ 0.1
5,"CC[C@@]1(O)CN(C(=O)Nc2cccc3c2[C@H](c2cc(F)ccc2Cl)NC3=O)c2ccc(F)cc21 (single isomer, unassigned) [Compound I-2463]",1 to 10
6,O=C(Nc1cc(-c2cnn(S(=O)(=O)C(F)F)c2)cc2c1[C@H](c1cc(F)ccc1Cl)NC2=O)c1cc(F)cc(C(F)(F)F)c1 [Compound I-2093],≤ 0.1
7,"COCc1cc(NC(=O)N2C[C@@](O)(C(F)(F)F)c3cc(F)ccc32)c2c(c1)C(=O)N[C@H]2c1cc(F)ccc1Cl (single isomer, unassigned) [Compound I-2543]",1 to 10
8,O=C(Nc1cccc2c1[C@@H](c1cc(F)ccc1C(F)F)NC2=O)c1cc(F)cc(C(F)(F)F)c1 [Compound I-169],1 to 10
9,N#CC1(CNc2cc(NC(=O)c3cc(F)cc(C(F)(F)F)c3)c3c(c2)C(=O)N[C@@H]3c2cc(F)ccc2Cl)CC1 [Compound I-869],0.1 to 0.5
10,CC(c1cc(NC(=O)c2cc(F)cc(C(F)(F)F)c2)c2c(c1)C(=O)NC2c1cc(F)ccc1Cl)S(C)(=O)=O (stereo not drawn) [Compound I-1292],≤ 0.1
11,CN1CC(C2NC(=O)c3cccc(NC(=O)c4cc(F)cc(C(F)(F)F)c4)c32)C1 (racemic) [Compound I-1832],10 to 100
12,"O=C(Nc1cc(OC[C@@H]2CCCN2)cc2c1C(c1cc(F)ccc1Cl)NC2=O)c1cc(F)cc(C(F)(F)F)c1 (single isomer, unassigned) [Compound I-1468]",0.1 to 0.5
13,O=C1NC(c2cc(F)ccc2Cl)c2c1cccc2-n1ccc2ccccc2c1=O (stereo not drawn) [Compound I-1590],10 to 100
14,"O=C1N[C@@H](c2cc(F)ccc2Cl)c2c(NC(=O)N3C[C@H](O)c4cc(F)ccc43)cccc21 (single isomer, unassigned) [Compound I-2126]",0.5 to 1
15,CC(C)n1cc(-c2cc(NC(=O)c3cc(F)cc(C(F)(F)F)c3)c3c(c2)C(=O)NC3c2cc(F)ccc2Cl)ccc1=O (stereo not drawn) [Compound I-699],≤ 0.1
16,CC(C)(O)COc1ncc(-c2cc(NC(=O)c3cc(F)cc(C(F)(F)F)c3)c3c(c2)C(=O)NC3c2cc(F)ccc2Cl)cn1 (stereo not drawn) [Compound I-1529],≤ 0.1
17,"O=C1NC(c2ccccc2Cl)c2c(NC(=O)c3nsc4ccccc34)cc(Cl)nc21 (stereo not drawn) [Compound I-93, N-[2-Chloro-5-(2-chlorophenyl)-7-oxo-5H,6H,7H-pyrrolo[3,4-b]pyridin-4-yl]-1,2-benzothiazole-3-carboxamide]",≤ 0.1
18,Cc1ccccc1C1NC(=O)c2cccc(NC(=O)c3cc(F)cc(OC(F)(F)F)c3)c21 (stereo not drawn) [Compound I-318],0.5 to 1
19,N#Cc1cnc2cnc(-c3cc(NC(=O)c4cc(F)cc(C(F)(F)F)c4)c4c(c3)C(=O)N[C@H]4c3cc(F)ccc3Cl)cn12 [Compound I-1923],≤ 0.1
20,CN1CCCC(C(=O)Nc2cc(-c3ccc4ncnn4c3)cc3c2C(c2cc(F)ccc2Cl)NC3=O)C1 (stereo not drawn) [Compound I-1792],1 to 10
